Results published in US11376246B2, “Inhibiting mutant IDH-1” (FORMA Therapeutics, Inc., priority 2018, dated 2022).

Tests used:
[1] = Literature reported data; cited from earlier work
cynomolgus monkeys [2] = details: cynomolgus monkey
2-HG in plasma = assay: Clinical pharmacodynamics, plasma 2-HG
in vivo = details: male, CD-1, mouse, po, 100 mg/kg
cynomolgus monkeys [3] = assay: 28-day oral toxicity study in cynomolgus monkeys; details: cynomolgus monkey, in vivo

SMILES: C[C@H](Nc1ccc(C#N)n(C)c1=O)c1cc2cc(Cl)ccc2[nH]c1=O [Compound 1, (S)-5-((1-(6-chloro-2-oxo-1,2-dihydroquinolin-3-yl)ethyl)amino)-1-methyl-6-oxo-1,6-dihydropyridine-2-carbonitrile]
- BBB+ [1]: Yes
- highest nonseverely toxic dose (HNSTD) (cynomolgus monkeys [2]; both, in vivo, 28 days): 50 mg/kg/day
- threshold for QTc prolongation risk as multiple of in vivo Ceff (cynomolgus monkeys [2]): > 6 fold
- median 2-HG plasma concentration (2-HG in plasma; 150 mg once daily (FIG. 22)): above 600 ng/mL
- median 2-HG plasma concentration (2-HG in plasma; 150 mg twice daily (FIG. 22)): approximately 100 ng/mL
- median 2-HG plasma concentration (2-HG in plasma; 300 mg once daily (FIG. 22)): above 200 ng/mL
- reduction of median 2-HG levels, 150 mg BID compared to 150 mg QD (2-HG in plasma; human, in vivo): about 10 fold
- median nadir 2-HG level in Cycle 1 (2-HG in plasma; single agent BID (150 mg)): ~70 ng/mL
- median nadir 2-HG level in Cycle 1 (2-HG in plasma; single agent QD (150 mg or 300 mg)): ~200 ng/mL
- concentration at 7 h (in vivo): ~130 nM
- threshold Cmax plasma concentration for QTc prolongation (cynomolgus monkeys [3]): 7840 ng/mL
